# Results reported in patent publication US4778824A, “Method for suppressing a transplantation immunity and treating an allergic disease and an autoimmune disease” (Zaidan Hojin Biseibutsu Kagaku Kenkyu Kai, priority 1984, dated 1988).
# Structures can show the parent of a compound that is named as a salt.
# Key:
# [1] = tested on: Skin allograft rejection (SHR to Fischer rats); test: Inhibition of rejection of skin allograft; format: in vivo; conditions: ± S.D.
# Source text: In the next place, the present inventors conducted a skin graft test with rats. In accordance with the method of Denham et al. (Denham et al., International Archives of Allergy and Applied Immunology, vol. 62, pp. 443-458, 1980), the skin of the tail of SHR rats was peeled and allografted onto Fischer rats. […] The inhibitory action of spergualin on tissue rejections is expected to manifest itself not only in skin transplantation but also in the transplantation of such organs as the kidney, heart, spleen, lung, liver, bone marrow and endocrine organs.
# Skin sections (5×10 mm) were peeled from the tails of SHR rats (female, 10 wk old) and transplanted to Fischer rats (female, 10 wk old) on the back. Varying doses of spergualin were administered intraperitoneally for a consecutive period of 10 or 20 days starting on the day following the transplantation. Complete necrosis of the graft was used as a measure of rejection and the inhibitory action of the compound was evaluated in terms of how long the rejection was postponed. […] The longer the period of administration, the greater the inhibitory action.
# [2] = tested on: IgE antibody production; test: Inhibition of IgE antibody production against egg albumin (passive cutaneous anaphylaxis titer); format: in vivo, BALB/c mice; conditions: 50 mg/kg/day i.p., ± S.D.
# Description: BALB/c mice (7 wk old, female) were challenged by intraperitoneal administration of 10 μg of egg albumin together with 4 mg of aluminum hydroxide gel. Thereafter, the mice were intraperitoneally administered 50 mg/kg/day of the test compound in accordance with the schedules shown in Table 5. After the challenge, blood was drawn from the fundus of each mouse at 10-day intervals for serum collection. The antibody titer of IgE in the serum was determined by passive cutaneous anaphylaxis as follows. Fischer 344 rats (female, 10 wk old) were injected with 0.05 ml of a diluted serum into the dorsal skin. Four hours later, 1 mg of egg albumin and 0.5 ml of 1% Evans blue were injected into the tail vein, and the final serum dilution that produced a blue spot of a diameter of at least 5 mm 30 minutes after the intravenous injection was used as a measure of the antibody titer.
# [3] = tested on: IgM antibody production; test: Inhibition of IgM antibody production against sheep red blood cells (plaque-forming cells); format: in vivo, CDF 1 mice; conditions: 3 days; for IgM plaque-forming cell count: ± S.D.
# Source text: Additionally, in accordance with the method of Jerne et al. (Jerne et al., Cell-bound Antibodies, pp. 109-122, 1963), the inventors examined the inhibitory action of spergualin on humoral immunity which is primarily the domain of the B-lymphocytes. The test procedure consisted of counting the number of spleen cells that were extracted from mice sensitized by antigenic sheep red blood cells and which formed immunoglobulin M (IgM) plaques. […] As summarized in Experiments 4 and 5 spergualin inhibited the production of IgG and IgE.
# CDF 1 mice (6-10 wk old, female) were immunized by intravenous injection of 1×10^8 sheep red blood cells. The mice were intraperitoneally administered varying doses (see Table 3 below) of the test compound for a period of 3 days starting from the day following the intravenous injection. Four days later, spleen cells were isolated from the mice and the number of IgM plaque-forming cells was counted by a known method (Yata et al.; Gan to Kagaku Ryoho (Cancer and Chemotherapy), vol. 2, pp. 903-908, 1975). The percentage inhibition of IgM antibody production was calculated by (1-B/A)×100 wherein A is the count for a control group (given physiological saline) and B, for the treated group.
smiles,measurement,setting,value
N=C(N)NCCCCC(O)CC(=O)NC(O)C(=O)NCCCCNCCCN (stereo not shown) [spergualin (trihydrochloride)],Average No. of days before rejection,"[1]; Run 1, 6.25 mg/kg/day i.p., days 1-10",10.2 ± 2.6 days
same,Average No. of days before rejection,"[1]; Run 1, 12.5 mg/kg/day i.p., days 1-10",13.0 ± 4.2 days
same,Average No. of days before rejection,"[1]; Run 1, 25.0 mg/kg/day i.p., days 1-10",14.9 ± 6.9 days
same,Average No. of days before rejection,"[1]; Run 1, 50.0 mg/kg/day i.p., days 1-10",17.0 ± 3.2 days
same,Average No. of days before rejection,"[1]; Run 2, 25.0 mg/kg/day i.p., days 1-10",15.0 ± 5.2 days
same,Average No. of days before rejection,"[1]; Run 2, 25.0 mg/kg/day i.p., days 1-20",31.0 ± 1.9 days
same,"IgE antibody titer, 10 days",[2]; days 1-8 after challenge,13±33 dilutions
same,"IgE antibody titer, 20 days",[2]; days 1-8 after challenge,60±31 dilutions
same,"IgE antibody titer, 30 days",[2]; days 1-8 after challenge,320±0 dilutions
same,"IgE antibody titer, 40 days",[2]; days 1-8 after challenge,320±0 dilutions
same,"IgE antibody titer, 10 days",[2]; days 1-16 after challenge,0±0 dilutions
same,"IgE antibody titer, 20 days",[2]; days 1-16 after challenge,8±9 dilutions
same,"IgE antibody titer, 30 days",[2]; days 1-16 after challenge,80±120 dilutions
same,"IgE antibody titer, 40 days",[2]; days 1-16 after challenge,200±131 dilutions
same,"IgE antibody titer, 10 days",[2]; days 9-16 after challenge,120±98 dilutions
same,"IgE antibody titer, 20 days",[2]; days 9-16 after challenge,110±106 dilutions
same,"IgE antibody titer, 30 days",[2]; days 9-16 after challenge,320±0 dilutions
same,"IgE antibody titer, 40 days",[2]; days 9-16 after challenge,480±392 dilutions
same,IgM plaque-forming cell count,[3]; 1 mg/kg/day i.p.,"1,304 ± 188 cells/10^6 spleen cells × 100"
same,IgM plaque-forming cell count,"[3]; 5 mg/kg/day i.p., significant (P < 0.001)",632 ± 87 cells/10^6 spleen cells × 100
same,IgM plaque-forming cell count,"[3]; 10 mg/kg/day i.p., significant (P < 0.001)",392 ± 87 cells/10^6 spleen cells × 100
same,IgM plaque-forming cell count,"[3]; 25 mg/kg/day i.p., significant (P < 0.001)",149 ± 53 cells/10^6 spleen cells × 100
same,IgM plaque-forming cell count,"[3]; 50 mg/kg/day i.p., significant (P < 0.001)",64 ± 24 cells/10^6 spleen cells × 100
same,inhibition at 1 mg/kg/day,"[3]; Mus musculus, Erythrocyte, ip, 72 h, IgM, 1 mg/kg/day i.p.",10.3%
same,inhibition at 5 mg/kg/day,"[3]; Mus musculus, Erythrocyte, ip, 72 h, IgM, 5 mg/kg/day i.p.",56.5%
same,inhibition at 10 mg/kg/day,"[3]; Mus musculus, Erythrocyte, ip, 72 h, IgM, 10 mg/kg/day i.p.",73%
same,inhibition at 25 mg/kg/day,"[3]; Mus musculus, Erythrocyte, ip, 72 h, IgM, 25 mg/kg/day i.p.",89.7%
same,inhibition at 50 mg/kg/day,"[3]; Mus musculus, Erythrocyte, ip, 72 h, IgM, 50 mg/kg/day i.p.",95.5%
